The record followed here is ChEMBL document CHEMBL4715741, “Neuroprotective effect of synthetic chalcone derivatives as competitive dual inhibitors against μ-calpain and cathepsin B through the downregulation of tau phosphorylation and insoluble Aβ peptide formation” (Eur J Med Chem, 2016).

The target in test [1] is T1, Calpain-1 catalytic subunit (Homo sapiens, UniProt P07384).
T1 sequence (P07384 whole entry): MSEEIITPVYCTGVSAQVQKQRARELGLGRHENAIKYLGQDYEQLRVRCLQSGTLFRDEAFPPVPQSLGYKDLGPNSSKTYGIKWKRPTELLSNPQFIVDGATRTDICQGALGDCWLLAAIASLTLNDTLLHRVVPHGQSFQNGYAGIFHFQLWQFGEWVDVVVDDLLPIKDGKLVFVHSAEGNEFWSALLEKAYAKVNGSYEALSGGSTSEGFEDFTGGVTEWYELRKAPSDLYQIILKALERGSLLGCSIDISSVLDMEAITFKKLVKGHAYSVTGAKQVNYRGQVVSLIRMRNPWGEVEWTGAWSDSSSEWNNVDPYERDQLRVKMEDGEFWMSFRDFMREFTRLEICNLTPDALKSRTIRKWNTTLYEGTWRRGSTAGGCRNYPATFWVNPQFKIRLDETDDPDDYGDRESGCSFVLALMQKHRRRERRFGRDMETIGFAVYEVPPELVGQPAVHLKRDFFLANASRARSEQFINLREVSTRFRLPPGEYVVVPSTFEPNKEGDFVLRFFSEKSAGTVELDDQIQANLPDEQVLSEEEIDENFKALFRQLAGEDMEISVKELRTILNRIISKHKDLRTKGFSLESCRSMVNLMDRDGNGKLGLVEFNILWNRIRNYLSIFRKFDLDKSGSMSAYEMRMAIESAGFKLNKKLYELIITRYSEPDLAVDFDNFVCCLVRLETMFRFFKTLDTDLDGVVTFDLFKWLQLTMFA
The experiment in a line: Inhibition of human erythrocytes mu-calpain using Pep2 as substrate incubated for 30 mins under shaking condition in presence of CaCl2 by fluorescence assay. Set-up: species or system Erythrocyte.

For test [2], the system named is SH-SY5Y. As to the kind of experiment: Neuroprotective activity in human SH-SY5Y cells assessed as reduction in GOx-induced PARP cleavage at 20 uM pretreated with GOx for 4 hrs followed by compound treatment by Western blot analysis. It is filed as functional, cell-based.
Test [3] deals with T1, Calpain-1 catalytic subunit. The experiment in a line: Inhibition of human erythrocytes mu-calpain using Pep1 as substrate incubated for 30 mins under shaking condition in presence of CaCl2 by fluorescence assay. Set-up: species or system Erythrocyte.
The target of test [4] is T2, Cathepsin B (Homo sapiens, UniProt P07858). As to the kind of experiment: Inhibition of cathepsin B (unknown origin) using RR-AMC as substrate preincubated for 30 mins followed by substrate addition and further incubated for 30 mins under shaking condition by fluorescence assay.
The target of a further test is Procathepsin L (Homo sapiens, UniProt P07711). As to the kind of experiment: Inhibition of cathepsin L (unknown origin) using Z-FR-AMC as substrate preincubated for 30 mins followed by substrate addition and further incubated for 30 mins under shaking condition by fluorescence assay.
Chain of Procathepsin L (P07711 whole entry): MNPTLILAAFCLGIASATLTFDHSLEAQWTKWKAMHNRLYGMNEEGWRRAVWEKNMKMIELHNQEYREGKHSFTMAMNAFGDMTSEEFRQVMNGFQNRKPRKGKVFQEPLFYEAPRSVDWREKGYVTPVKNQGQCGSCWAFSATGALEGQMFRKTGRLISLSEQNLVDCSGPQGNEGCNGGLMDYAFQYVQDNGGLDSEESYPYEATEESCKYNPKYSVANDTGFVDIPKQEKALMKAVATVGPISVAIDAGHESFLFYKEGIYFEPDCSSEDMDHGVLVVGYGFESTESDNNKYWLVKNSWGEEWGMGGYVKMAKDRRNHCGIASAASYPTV
The target in test [5] is T3, Calpain-1 catalytic subunit (Homo sapiens) (UniProt P07384).
T3 sequence (whole entry): T1 sequence (P07384 whole entry)
The experiment in a line: Inhibition of mu-calpain (unknown origin) expressed in SH-SY5Y cells assessed as reduction in p35 cleavage at 20 uM using p35 as substrate measured after 210 mins by fluorescence microplate reader assay. It counts as cell-based.

In test [6] the target is T3, Calpain-1 catalytic subunit (Homo sapiens). The experiment in a line: Inhibition of mu-calpain (unknown origin) expressed in HEK293T cells assessed as reduction in p35 cleavage at 5 uM using p35 as substrate measured after 210 mins by fluorescence microplate reader assay. It counts as cell-based.
Test [7] deals with T2, Cathepsin B. The experiment in a line: Inhibition of cathepsin B in human SH-SY5Y cells using RR-AMC as substrate by fluorescence microplate reader assay. It counts as cell-based.
In test [8] the test system is SH-SY5Y. The experiment in a line: Neuroprotective activity in human SH-SY5Y cells assessed as reduction in GOx-induced PARP cleavage at 5 uM pretreated with GOx for 4 hrs followed by compound treatment by Western blot analysis. It counts as functional, cell-based.
Test [9] deals with SH-SY5Y. As to the kind of experiment: Neuroprotective activity in human SH-SY5Y cells assessed as reduction in GOx-induced caspase 3 cleavage pretreated with GOx for 4 hrs followed by compound treatment by Western blot analysis. It counts as functional, cell-based.
Test [10] relates to SH-SY5Y. As to the kind of experiment: Inhibition of mu-calpain/cathepsin B in human SH-SY5Y cells assessed as reduction in GOx-induced BACE1 upregulation at 20 uM pretreated with GOx for 4 hrs followed by compound treatment by Western blot analysis. It counts as cell-based.
Test [11] concerns SH-SY5Y. As to the kind of experiment: Reduction in GOx-induced amyloid beta(1 to 42) level in human SH-SY5Y cells pretreated with GOx for 4 hrs followed by compound treatment by sandwich ELISA. It is filed as functional, cell-based.
The target in test [12] is T3, Calpain-1 catalytic subunit (Homo sapiens). The experiment in a line: Inhibition of mu-calpain in human SH-SY5Y cells assessed as reduction in GOx-induced MAPK phosphorylation pretreated with GOx for 4 hrs followed by compound treatment by Western blot analysis. It is filed as cell-based.
For test [13] the target is unchanged. As to the kind of experiment: Inhibition of mu-calpain in human SH-SY5Y cells assessed as reduction in GOx-induced […] pretreated with GOx for 4 hrs followed by compound treatment by Western blot analysis. It is filed as cell-based.
Test [14] has the same target. The experiment in a line: Inhibition of mu-calpain in human SH-SY5Y cells assessed as reduction in tau phosphorylation by Western blot analysis. It counts as cell-based.
The target is the same in test [15]. As to the kind of experiment: (§1) Competitive inhibition of human erythrocytes mu-calpain using varying level of Pep2 as substrate by Lineweaver-Burk plot analysis. Conditions: Erythrocyte.
For test [16], the target named is T1, Calpain-1 catalytic subunit. Described as §1. Also noted: species or system Erythrocyte.
The target of test [17] is T2, Cathepsin B. The experiment in a line: Competitive inhibition of cathepsin B (unknown origin) using varying level of RR-AMC as substrate by Lineweaver-Burk plot analysis.
Test [18] has as its target T2, Cathepsin B. The experiment in a line: Inhibition of human liver cathepsin B using RR-AMC as substrate preincubated for 30 mins followed by substrate addition and further incubated for 30 mins under shaking condition by fluorescence assay. It counts as tissue-based.

The structures appear in SMILES notation. The source made the active and inactive calls. The calls are words filed in the database; no cut-off is given here. Square brackets hold non-standard residues; d marks the D form. Peptide text beside a SMILES is read from it. * marks the point of attachment. ξ: configuration not given here. ξF = NC(Cc1ccccc1)C(=O)O; Cbz = O=C(OCc1ccccc1)*; CH2F = FC* Some results are limits rather than exact numbers.

`COc1ccc(O)cc1/C=C/C(=O)c1ccc(O)cc1`: in [1], the IC50 came to 16.7 µM.
On to `COc1cc(O)ccc1C(=O)/C=C/c1ccc(O)cc1`, for which the IC50 in test [1] is 16.9 µM.
As to `CC(C)[C@H](NC(=O)OCc1ccccc1)C(=O)NC(C=O)Cc1ccccc1` (stereo partly drawn) (Cbz-Val-[ξF]-aldehyde), in the test with SH-SY5Y [2], the outcome was Active.
Consider `COc1ccc(/C=C/C(=O)/C=C/c2ccc(O)cc2OC)cc1`, for which the IC50 is 46.6 µM in [3], 37.8 µM against Cathepsin B [4] and more than 50 µM against Procathepsin L.
`O=C(/C=C/c1ccc(O)c2ccccc12)c1ccco1`: the IC50 in test [3] was 40.9 µM; on Cathepsin B [4] it was more than 50 µM; against Procathepsin L, 33 µM.
On to `O=C(/C=C/c1ccc(O)c2ccccc12)c1ccc(O)cc1O`, for which the IC50 in test [3] came out at 18.8 µM; against Cathepsin B [4], 6.34 µM; against Procathepsin L it was 14.9 µM; against Cathepsin B [7], 13 µM. In addition, the inhibition result (in [5]; in [6]; in the test with SH-SY5Y [10]; in [12]; in test [13]; in test [14]) was “Active” each time. The result with SH-SY5Y [8], in the test with SH-SY5Y [9] and in the test with SH-SY5Y [11] was Active. The inhibition result (in test [15]; on Cathepsin B [17]) was “Dose-dependent effect” each time. The Ki in test [16] was 19.3 µM; at Cathepsin B [17], 10.6 µM.
On to `CCOc1cc(O)ccc1C(=O)/C=C/C=C/c1ccccc1OC`, for which the results for the IC50 (in [3]; against Cathepsin B [4]; at Procathepsin L) were 13 µM, 13.9 µM and 27 µM, respectively.
For the molecule `O=C(N[C@@H](Cc1ccccc1)C(=O)N[C@@H](Cc1ccccc1)C(=O)CF)OCc1ccccc1` (Cbz-Phe-Phe-CH2F), the IC50 in test [3] is 0.397 µM.
Take `O=C(/C=C/c1ccc(O)c2ccccc12)c1ccc(O)cc1`: the values for the half-maximal inhibitory concentration (IC50) (in [3]; at Cathepsin B [4]; at Procathepsin L) were 69.6 µM, 14.8 µM and 21.6 µM, respectively.
Regarding `CCCNC(=O)[C@H]1O[C@@H]1C(=O)N[C@H](C(=O)N1CCC[C@H]1C(=O)O)[C@@H](C)CC`, the IC50 in [3] was more than 100 µM. Moreover, the result in the test with SH-SY5Y [2] was Active.
Consider `COc1cc(/C=C/C(=O)c2ccco2)ccc1O`, for which the IC50 in test [1] amounted to 15.4 µM; on Cathepsin B [18], 20.6 µM.
In the case of `COc1cc(/C=C/C=C/C(=O)c2ccc(O)cc2)ccc1O`, the IC50 amounted to 16.8 µM in test [3], 11.1 µM at Cathepsin B [4], 16 µM against Procathepsin L and 3.81 µM at Cathepsin B [7]. Further, the inhibition result (in test [5]; in test [6]; with SH-SY5Y [10]; in test [12]; in [13]; in test [14]) was “Active” throughout. Moreover, the outcome in the test with SH-SY5Y [8], in the test with SH-SY5Y [9] and with SH-SY5Y [11] was Active. Further, the inhibition result (in test [15]; on Cathepsin B [17]) was “Dose-dependent effect” each time. The Ki in test [16] is 5.73 µM; on Cathepsin B [17], 4.74 µM.
Take `CCOC(=O)[C@H]1O[C@@H]1C(=O)N[C@@H](CC(C)C)C(=O)NCCC(C)C` [ALOXISTATIN]: the IC50 worked out at 62.3 µM in test [3], 14.4 µM against Cathepsin B [4] and 2.41 µM at Procathepsin L. Besides, the result in the test on SH-SY5Y [2] was Active.
`COc1ccc(/C=C/C(=O)c2ccc(O)cc2)c2ccccc12`: the IC50 in test [3] worked out at 10.2 µM; against Cathepsin B [4] it was 14.5 µM; against Procathepsin L, 25.8 µM.
`COc1ccccc1/C=C/C=C/C(=O)c1cccnc1`: the IC50 in test [3] came to 19.1 µM; against Cathepsin B [4], 33.3 µM; on Procathepsin L, 48.4 µM.
As for `COc1cc(O)ccc1C(=O)/C=C/c1ccc(O)c2ccccc12`, the IC50 in [3] turned out to be 23.8 µM; against Cathepsin B [4] it was 15.6 µM; on Procathepsin L it was 15.6 µM.
Turning to `COc1ccccc1/C=C/C=C/C(=O)c1ccc(O)cc1`, the IC50 in test [3] stood at 13.7 µM; at Cathepsin B [4], 33.1 µM; on Procathepsin L it was 26.1 µM.
On to `CCCC[C@@H](C=O)NC(=O)[C@H](CC(C)C)NC(=O)OCc1ccccc1` [CALPEPTIN], for which the IC50 in test [3] is 0.297 µM; against Cathepsin B [4], more than 100 µM; at Procathepsin L, 0.072 µM.
Consider `O=C(/C=C/c1ccc(O)c2ccccc12)c1cccs1`, for which the figures for the IC50 (in test [3]; at Cathepsin B [4]; against Procathepsin L) were more than 50 µM, more than 50 µM and 35.4 µM, respectively.
